Assay results published in US5281717A, “Epoxysuccinamic acid derivatives” (Taisho Pharmaceutical Co., Ltd., priority 1990, dated 1994).
Where two headings read alike, the source gives them in different places.

Experiments:
Type in all cases: biochemical
[1] = biological target: T1, papain (Carica papaya, UniProt P00784); assay: Inhibitory Activity Against Papain
T1 construct: purchased Sigma Chemical Co
T1 sequence (P00784 134-345): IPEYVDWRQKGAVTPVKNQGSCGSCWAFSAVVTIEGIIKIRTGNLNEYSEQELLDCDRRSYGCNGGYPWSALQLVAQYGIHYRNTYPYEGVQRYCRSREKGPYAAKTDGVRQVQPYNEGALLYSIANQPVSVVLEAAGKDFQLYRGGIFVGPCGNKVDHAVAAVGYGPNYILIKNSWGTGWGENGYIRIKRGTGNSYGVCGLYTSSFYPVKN
Protocol: (§1) The inhibitory activities against papain, CANP and cathepsin B were measured according to the following methods, and results are shown in Table 1.
The measurement was carried out according to the method of A. J. Barrett et al [Biochem. J., vol. 201, p. 189 (1982)].
To each of 0.95 ml of the reaction solutions containing 2.5 mM 2-mercaptoethanol, 1 mM disodium ethylenediaminetetraacetate, 0.1 M sodium potassium phosphate buffer (pH 6.8), 0.1% Brij-35 (produced by Nacalai Tesque Inc.), 1% dimethyl sulfoxide and various concentrations of the test drug was added 25 μl of a papain solution (produced by Sigma Chemical Co.), and the mixture was preincubated at 40° C. for 3 minutes, after which 25 μl of 200 μM benzyloxycarbonyl-L-phenylalanyl-L-arginine 4-methylcoumaryl-7-amide (produced by Peptide Institute Inc.) was added for starting the reaction After incubation at 40° C. for 10 minutes, the reaction was stopped by addition of 1 ml of 100 mM sodium acetate buffer solution (pH 4.3) containing 100 mM sodium chloroacetate. The fluorescence of the liberated 7-amino-4-methylcoumarine was determined using a Shimazu fluorometer RF-5000 with excitation at 380 nm and emission measured at 440 nm. […]

[2] = biological target: T2, cathepsin B (Homo sapiens, UniProt P07858); assay: Inhibitory Activity against Cathepsin B; conditions: pH 6.0, 40° C., preincubated 3 minutes, incubation 10 minutes, substrate benzyloxycarbonyl-L-phenylalanyl-L-arginine 4-methylcoumaryl-7-amide
T2 construct: purchased Sigma Chemical Co
Protocol: To each of 0.95 ml of the reaction solutions containing 2.5 mM 2-mercaptoethanol, 1 mM disodium ethylenediaminetetraacetate, 0.1 M sodium potassium phosphate buffer (pH 6.0), 0.1% Brij-35 (produced by Nacalai Tesque Inc.), 1% dimethyl sulfoxide and various concentrations of the test drug was added 25 μl of 200 nM cathepsin B solution (produced by Sigma Chemical Co.), and the mixture was preincubated at 40° C. for 3 minutes, after which 25 μl of 200 μM benzyloxycarbonyl-L-phenylalanyl-L-arginine 4-methylcoumaryl-7-amide (produced by Peptide Institute Inc.) was added for starting the reaction After incubation at 40° C. for 10 minutes, the reaction was stopped by addition of 1 ml of 100 mM sodium acetate buffer (pH 4.3) containing 100 nM sodium chloroacetate. The fluorescence of the liberated 7-amino-4-methyl-coumarine was determined using a Shimazu fluorometer RP-5000 with excitation at 380 nm and emission measured at 440 nm.

[3] = biological target: T3, μ CANP (Calpain I) (Homo sapiens, UniProt P07384); assay: Inhibitory Activity Against CANP; conditions: pH 7.5, 30° C., preincubated 5 minutes, incubation 20 minutes, alkali-denatured casein
T3 construct: purchased Nacalai Tesque Inc
T3 sequence (P07384 2-714 limits assumed): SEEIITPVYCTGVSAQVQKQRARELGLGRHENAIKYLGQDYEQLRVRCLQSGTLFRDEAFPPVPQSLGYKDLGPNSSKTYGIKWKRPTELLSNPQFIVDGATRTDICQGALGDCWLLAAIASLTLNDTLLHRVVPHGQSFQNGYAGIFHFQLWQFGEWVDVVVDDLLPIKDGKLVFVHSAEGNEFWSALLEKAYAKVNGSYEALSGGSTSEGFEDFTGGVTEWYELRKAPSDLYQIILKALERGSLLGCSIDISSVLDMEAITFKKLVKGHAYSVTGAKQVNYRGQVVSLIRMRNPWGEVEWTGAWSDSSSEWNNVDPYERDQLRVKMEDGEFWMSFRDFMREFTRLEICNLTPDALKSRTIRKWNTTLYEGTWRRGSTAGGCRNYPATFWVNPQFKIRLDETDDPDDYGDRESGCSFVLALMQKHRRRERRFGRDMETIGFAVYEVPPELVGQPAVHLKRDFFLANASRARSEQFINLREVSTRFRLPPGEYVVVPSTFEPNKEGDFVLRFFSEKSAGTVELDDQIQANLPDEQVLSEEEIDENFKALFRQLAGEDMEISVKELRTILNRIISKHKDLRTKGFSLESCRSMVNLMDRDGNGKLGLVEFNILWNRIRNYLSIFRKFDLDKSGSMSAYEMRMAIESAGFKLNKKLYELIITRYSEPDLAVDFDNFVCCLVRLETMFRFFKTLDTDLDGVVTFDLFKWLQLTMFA
T3 sequence (P04632 1-268 partner): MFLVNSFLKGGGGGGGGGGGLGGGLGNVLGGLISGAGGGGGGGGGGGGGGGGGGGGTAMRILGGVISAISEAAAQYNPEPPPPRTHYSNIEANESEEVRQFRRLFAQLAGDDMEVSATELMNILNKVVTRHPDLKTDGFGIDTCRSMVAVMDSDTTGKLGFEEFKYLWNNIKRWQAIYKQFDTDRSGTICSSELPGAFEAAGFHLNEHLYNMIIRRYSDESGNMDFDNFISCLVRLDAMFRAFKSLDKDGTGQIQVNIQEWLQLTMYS
Protocol: as §1
The measurement was carried out according to the method of S. Ishiura et al (J. Biochem., vol. 84, p. 225 (1978)].
Each of 0.45 ml of the reaction solutions containing 25 mM 2-mercaptoethanol, 5 mM calcium chloride, 0.1 M sodium glycerophosphate-HCl buffer (pH 7.5), 0.24% alkali-denatured casein, 1% dimethylsulfoxide and various concentrations of the test drug was preincubated accurately at 30° C. for 5 minutes, and 50 μl of a solution containing 5 μg of μ CANP (Calpain I, produced by Nacalai Tesque Inc.) was added for starting the reaction. After exact incubation at 30° C. for 20 minutes, the reaction was stopped by addition of 0.5 ml of 10% trichloroacetic acid. After being allowed to stand at room temperature for 60 minutes, the mixture was centrifuged at 3000 × g for 5 minutes, and the absorbance at 280 nm of the supernatant was determined. The remaining activity was obtained by reducing the blank value which was obtained in a similar manner to the above but adding 10% trichloroacetic acid prior to addition of μ CANP from the above value. […]

IC50 ([1]; pH 6.8, 40° C., preincubated 3 minutes, incubation 10 minutes, substrate benzyloxycarbonyl-L-phenylalanyl-L-arginine 4-methylcoumaryl-7-amide, read-out: Inhibitory Activity Value [IC50 (nM)] Papain) [nM]	SMILES	IC50 [1] [nM]	IC50 [2] [nM]	IC50 [3] [nM]
	CCCCCNC(=O)[C@H]1O[C@@H]1C(=O)N[C@H](C(=O)N1CCC[C@H]1C(=O)O)[C@@H](C)CC [Compound 8d]	26000	32	> 200000
57400	CCCNC(=O)[C@H]1O[C@@H]1C(=O)N[C@H](C(=O)N1CCC[C@H]1C(=O)O)[C@@H](C)CC [Compound 1d, N-(L-3-trans-n-propylcarbamoyloxirane-2-carbonyl)-L-isoleucyl-L-proline]			> 200000
